Results from patent publication US6063814A, “Phorbol esters as anti-neoplastic and white blood cell elevating agents” (priority 1997, dated 2000).
Where two headings read alike, the source gives them in different places.

Tests used:
[1] = tested on: S180 (Sarcoma 180) tumor cells; experiment: Tumor growth inhibition in mice injected with S180 (Sarcoma 180) tumor cells; type: in vivo, Kwen-Ming mice
Description: Effect of TPA in Mice Injected With S180 (Sarcoma 180) Tumor Cells:
Eight groups of Kwen-Ming mice containing 7 mice per group were used in the following experiment. Two groups were untreated and six groups received the drug.
Each Kwen-Ming mouse was injected with 5×10^6 S180 cells at the under-arm position. After 24 or 72 h, the animals were given TPA i.p. or locally at the tumor site. The injected doses of TPA were 50, 100 and 200 μg/kg/d for 7 days. The animals were sacrificed 24 hrs after the final TPA treatment and the tumors were weighed to calculate the extent of the tumor growth inhibition.

[2] = tested on: skin and the mucous membrane; conditions: cited from earlier work
[3] = type: in vivo, humans
Description: TPA solution in a sterile syringe was injected into 200 ml of saline and mixed well for i.v. infusion.
2. The Toxicity and Side Effects of Different TPA Doses Administered Clinically:
One mg TPA in solution was mixed well with 200 ml of saline for i.v. infusion which was completed in 1 h at the rate of 16 μg/min. […] The above symptoms could be alleviated by giving the patients glucocorticoids. […] The cardiac, hepatic, renal and pulmonary functions were all found to be normal.
0.5 mg of TPA in solution was mixed well with 200 ml of saline for i.v. infusion which was completed in 1 h at the rate of 8 μg/min. […] Difficulty in breathing was not observed. The cardiac, hepatic, renal and pulmonary functions were all normal.
0.25 mg of TPA in solution was mixed well with 200 ml of saline for i.v. infusion which was completed in 1 h at the rate of 4 μg/min. […] The cardiac, hepatic, renal and pulmonary functions were all normal.

[4] = Chemical stability of TPA solutions on storage; type: physicochemical; conditions: dark
Description: 0.10, 0.125, 0.25 or 0.5 mg of TPA was dissolved in 1.3 ml 95-100% U.S.P. ethanol and 0.7 ml saline. Under sterile conditions, TPA was first dissolved in ethanol, then saline was added, mixed vigorously, bacteriologically filtered, and stored in sealed sterile amber vials containing either 0.10 mg/2 ml, 0.125 ml/2 ml or 0.25 mg/2 ml, 0.5 mg/2 ml.
0.10, 0.125, 0.25 or 0.5 mg of TPA was dissolved in 0.2 ml of ethanol, 1.2 ml of isopropanol and 0.6 ml saline. Under sterile conditions, TPA was first dissolved in the ethanol and isopropanol, then saline was added, and the mixture was vigorously mixed, bacteriologically filtered and stored in sealed sterile amber vials containing either 0.10 mg/2 ml, 0.125 ml/2 ml or 0.25 mg/2 ml or 0.5 mg/2 ml.

[5] = tested on: leukemia (bone marrow myeloblast and promyelocyte); experiment: Clinical treatment of leukemia patients with TPA; type: in vivo, humans
[6] = tested on: B16 tumor cells; experiment: Tumor growth inhibition in mice injected with B16 tumor cells; type: in vivo, C57 mice; conditions: statistically different from control
Description: Effect of TPA in Mice Injected with B16 Tumor Cells:
Four groups of C57 mice were used in the experiment. Each group contained 7 mice and one group was untreated. Each C57 mouse was injected with 0.2 ml of supernatant of a 1:6 w/v homogenate of B16 cells at the under-arm position. On the third day, each treatment group was given TPA i.p. at 50, 100 or 200 μg/kg/d for 8 days.

[7] = tested on: HL-60 cells; experiment: TPA + low doses of Ara-C, HL-60 differentiation; type: cell-based, human
Description: (2) TPA+Low Doses of Ara-C:

[8] = tested on: HL-60 cells; experiment: Effect of TPA in a human promyelocytic leukemia cell line (HL-60); type: cell-based; conditions: 10, 20 or 100 ng/ml
Description: 1. Effect of TPA in a Human Promyelocytic Leukemia Cell Line (HL-60):
HL-60 cells at 2×10^6 cells/ml were treated with TPA. The final concentrations of TPA were 10, 20, or 100 ng/ml. The ethanol content was less than 0.01%.

[9] = 0.25 mg/patient×4/week, i.v. infusion in 1 h
[10] = 0.5 mg/patient×2/week, i.v. infusion in 1 h
[11] = 1 mg/patient/week, i.v. infusion in 1 h
[12] = subject 8, AML-M3, retinoic acid failed
[13] = subject 9, secondary aplastic anemia, TPA 0.25 mg×2

CCCCCCCCCCCCCC(=O)O[C@@H]1[C@@H](C)[C@@]2(O)[C@@H](C=C(CO)C[C@]3(O)C(=O)C(C)=C[C@@H]23)[C@@H]2C(C)(C)[C@]12OC(C)=O [TPA, Phorbol 12-Myristate-13-Acetate]
tumor cell differentiation (pathological studies) ([1]; after TPA treatment): the tumor cells were differentiated
inhibition of tumor growth ([1]; i.p. 50 μg/kg daily for 7 days): 41.7%
inhibition of tumor growth ([1]; i.p. 100 μg/kg daily for 7 days): 54.8%
inhibition of tumor growth ([1]; i.p. 200 μg/kg daily for 7 days): 30.4%
inhibition of tumor growth ([1]; locally at tumor site, 50 μg/kg daily for 7 days): 35.5%
inhibition of tumor growth ([1]; locally at tumor site, 100 μg/kg daily for 7 days): 49.3%
inhibition of tumor growth ([1]; locally at tumor site, 200 μg/kg daily for 7 days): 59.2%
harm on oral ingestion [2]: harmful if ingested orally
irritant to skin [2]: highly potent irritant to skin
Hb in urine [3, 9]: No Hb was detected in the urine
cardiac, hepatic, renal and pulmonary functions [3, 9]: normal
chills and fever [3, 9]: also observed, but to a much lesser extent than with the higher dosages
difficulty in breathing [3, 9]: no patient suffered difficulty in breathing
Hb in urine [3, 10]: Occasionally, Hb was detected in patients urine
cardiac, hepatic, renal and pulmonary functions [3, 10]: normal
difficulty in breathing [3, 10]: not observed
tolerability ([3]; 0.5 mg/patient×2/week, versus 1 mg): tolerated the lower dose more easily
Hb in urine [3, 11]: Hb was detected in the urine
bleeding [3, 11]: a minority of patients to bleed
cardiac, hepatic, renal and pulmonary functions [3, 11]: normal
difficulty in breathing [3, 11]: several patients suffered for a short period of time difficulty in breathing
duration of chills [3, 11]: about 30 min
duration of fever [3, 11]: 3 to 5 h
fever, patients' temperature [3, 11]: 37.5-39.5 °C
onset of chills [3, 11]: One hour after TPA administration
perspiration [3, 11]: light to heavy perspiration
reversibility of side effects [3, 11]: short lived and reversible
local irritation ([3]; TPA application): strong local irritation
chemical change on storage ([4]; cold temperature, up to one year): no chemical change
chemical change on storage ([4]; room temperature, up to two months): no chemical change
Bone marrow myeloblast+promyelocyte after TPA treatment [5, 12]: 17%
Hb after TPA treatment [5, 12]: 66 g/L
WBC after TPA treatment [5, 13]: 1.9e+09 L⁻¹
treatment termination [5, 13]: Due to severe anemia, the TPA treatment was terminated
Bone marrow Myeloblast and promyelocyte, early in TPA treatment ([5]; subject 10, CML, 0.25 mg TPA once): 9%
myeloblast, promyelocyte, myelocyte ([5]; subject 10, CML, TPA 0.25 mg once, fifth day): completely disappeared
rate of inhibition of tumor growth ([6]; i.p. 50 μg/kg/d for 8 days): 40.0%
rate of inhibition of tumor growth ([6]; i.p. 100 μg/kg/d for 8 days): 59.4%
rate of inhibition of tumor growth ([6]; i.p. 200 μg/kg/d for 8 days): 32.1%
HL-60 cell differentiation ([7]; TPA alone, low dose 20 ng/ml): weak cell differentiation-inducing agent
HL-60 cell differentiation ([7]; combination of TPA and Ara-C): induced the HL-60 cells to differentiate synergistically
differentiation to macrophages ([8]; after 4-6 days): the majority of the cells were induced to differentiate to macrophages in a dose-dependent manner
cell aggregation and attachment ([8]; after 3 hours): cell aggregation and attachment to the dish were observed
proliferation of HL-60 cells ([8]; after 3 hours): stopped proliferating
morphological changes ([8]; after 48 h): there were morphological changes
